In ChEMBL document CHEMBL1909046, “DrugMatrix in vitro pharmacology data”:

Columns and labels:
[1] = target: Cytochrome P450 2E1 (Homo sapiens, UniProt P05181); details: bti-tn-5b1-4; also: in other assays of this panel Not Active means under 50% inhibition at 10 µM
[2] = target: T1, Thromboxane-A synthase (Homo sapiens, UniProt P24557); experiment: biochemical; type: tissue-based, Platelet; details: platelet;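 also: enzyme inhibition assay with PGH2 supplied as substrate; in other assays of this panel Not Active means under 50% inhibition at 10 µM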
T1 sequence (P24557 whole entry): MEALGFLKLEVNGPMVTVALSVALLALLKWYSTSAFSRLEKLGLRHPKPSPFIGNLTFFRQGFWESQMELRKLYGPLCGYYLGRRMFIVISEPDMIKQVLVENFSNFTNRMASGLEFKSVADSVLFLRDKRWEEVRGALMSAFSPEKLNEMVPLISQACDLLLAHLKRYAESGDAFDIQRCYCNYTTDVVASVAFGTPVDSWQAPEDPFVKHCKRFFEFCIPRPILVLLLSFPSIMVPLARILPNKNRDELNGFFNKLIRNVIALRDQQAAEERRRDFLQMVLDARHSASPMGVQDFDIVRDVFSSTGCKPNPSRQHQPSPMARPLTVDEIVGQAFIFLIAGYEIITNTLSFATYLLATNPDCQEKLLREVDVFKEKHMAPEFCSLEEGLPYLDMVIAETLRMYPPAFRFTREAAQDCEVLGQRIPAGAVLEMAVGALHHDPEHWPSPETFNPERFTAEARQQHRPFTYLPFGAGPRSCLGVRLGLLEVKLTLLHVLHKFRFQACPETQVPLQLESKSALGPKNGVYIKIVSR

[3] = DRUGMATRIX: Potassium Channel [KATP] radioligand binding (ligand: [3H] Glyburide); type: cell membranes, Membrane; details: hit-t15; Not Active = under 50% inhibition at 10 µM
[4] = target: T2, Cathepsin G (Homo sapiens, UniProt P08311); type: tissue-based; details: neutrophil;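 also: inhibition of Cathepsin G enzyme activity, tested on an AMC-conjugated peptide substrate; in other assays of this panel Not Active means under 50% inhibition at 10 µM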
T2 sequence (P08311 whole entry): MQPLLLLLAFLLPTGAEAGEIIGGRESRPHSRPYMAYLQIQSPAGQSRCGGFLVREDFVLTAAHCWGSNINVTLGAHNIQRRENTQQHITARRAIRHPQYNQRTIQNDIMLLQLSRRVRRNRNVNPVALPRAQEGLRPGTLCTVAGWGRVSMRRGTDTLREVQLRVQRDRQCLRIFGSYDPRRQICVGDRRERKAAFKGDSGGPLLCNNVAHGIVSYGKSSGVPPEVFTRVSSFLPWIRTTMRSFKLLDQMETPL

[5] = target: Substance-P receptor (Homo sapiens, UniProt P25103); type: cell membranes, Membrane; details: cho; also: in other assays of this panel Not Active means under 50% inhibition at 10 µM
Substance-P receptor, sequence (P25103 whole entry): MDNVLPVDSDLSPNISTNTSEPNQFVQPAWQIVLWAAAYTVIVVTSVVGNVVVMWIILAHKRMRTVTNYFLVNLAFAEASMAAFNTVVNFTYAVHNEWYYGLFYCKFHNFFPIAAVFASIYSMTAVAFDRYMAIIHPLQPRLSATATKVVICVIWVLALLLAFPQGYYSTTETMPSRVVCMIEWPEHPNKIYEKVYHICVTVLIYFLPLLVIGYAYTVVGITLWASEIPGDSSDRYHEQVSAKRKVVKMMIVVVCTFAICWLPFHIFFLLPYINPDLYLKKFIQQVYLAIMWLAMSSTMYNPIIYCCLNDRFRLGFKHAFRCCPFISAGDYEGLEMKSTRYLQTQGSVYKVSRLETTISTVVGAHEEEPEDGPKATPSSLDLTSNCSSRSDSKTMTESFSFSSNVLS

[6] = target: Protein phosphatase 3 catalytic subunit alpha (Homo sapiens, UniProt Q08209); set-up: species or system Escherichia coli
[7] = DRUGMATRIX: Phosphodiesterase PDE4 enzyme inhibition (substrate: [3H]cAMP + cAMP); details: u-937; Not Active = under 50% inhibition at 10 µM
[8] = target: T3, Adenosine receptor A1 (Homo sapiens, UniProt P30542); type: cell membranes, Membrane; details: cho
T3 sequence (P30542 whole entry): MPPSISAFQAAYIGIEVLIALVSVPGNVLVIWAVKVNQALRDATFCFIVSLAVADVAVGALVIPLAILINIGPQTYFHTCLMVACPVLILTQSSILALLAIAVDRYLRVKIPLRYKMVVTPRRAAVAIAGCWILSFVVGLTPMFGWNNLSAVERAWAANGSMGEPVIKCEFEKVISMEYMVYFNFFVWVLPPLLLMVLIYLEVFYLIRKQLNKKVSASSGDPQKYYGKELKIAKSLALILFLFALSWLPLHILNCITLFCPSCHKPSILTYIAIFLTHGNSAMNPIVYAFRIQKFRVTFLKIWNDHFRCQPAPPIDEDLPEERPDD

[9] = target: T4, Alpha-1A adrenergic receptor (Rattus norvegicus, UniProt P43140); experiment: DRUGMATRIX: Alpha-1A adrenergic receptor radioligand binding (ligand: prazosin); type: cell membranes, Wistar, Submaxillary gland, Membrane; details: Not Active = under 50% inhibition at 10 µM
T4 sequence (P43140 whole entry): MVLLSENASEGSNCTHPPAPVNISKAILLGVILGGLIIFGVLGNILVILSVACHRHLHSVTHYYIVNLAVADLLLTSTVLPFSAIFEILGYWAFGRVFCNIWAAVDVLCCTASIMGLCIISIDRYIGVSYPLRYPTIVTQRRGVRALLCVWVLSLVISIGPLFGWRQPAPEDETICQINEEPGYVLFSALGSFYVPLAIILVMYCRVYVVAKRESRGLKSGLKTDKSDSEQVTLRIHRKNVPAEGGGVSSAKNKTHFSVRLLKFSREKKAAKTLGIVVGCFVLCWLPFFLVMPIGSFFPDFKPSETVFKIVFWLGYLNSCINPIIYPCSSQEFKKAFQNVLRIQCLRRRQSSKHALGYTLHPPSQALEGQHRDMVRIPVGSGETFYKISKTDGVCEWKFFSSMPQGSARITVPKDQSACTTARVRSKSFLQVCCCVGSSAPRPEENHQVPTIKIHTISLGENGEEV

Cytochrome P450 2E1, sequence (P05181 whole entry): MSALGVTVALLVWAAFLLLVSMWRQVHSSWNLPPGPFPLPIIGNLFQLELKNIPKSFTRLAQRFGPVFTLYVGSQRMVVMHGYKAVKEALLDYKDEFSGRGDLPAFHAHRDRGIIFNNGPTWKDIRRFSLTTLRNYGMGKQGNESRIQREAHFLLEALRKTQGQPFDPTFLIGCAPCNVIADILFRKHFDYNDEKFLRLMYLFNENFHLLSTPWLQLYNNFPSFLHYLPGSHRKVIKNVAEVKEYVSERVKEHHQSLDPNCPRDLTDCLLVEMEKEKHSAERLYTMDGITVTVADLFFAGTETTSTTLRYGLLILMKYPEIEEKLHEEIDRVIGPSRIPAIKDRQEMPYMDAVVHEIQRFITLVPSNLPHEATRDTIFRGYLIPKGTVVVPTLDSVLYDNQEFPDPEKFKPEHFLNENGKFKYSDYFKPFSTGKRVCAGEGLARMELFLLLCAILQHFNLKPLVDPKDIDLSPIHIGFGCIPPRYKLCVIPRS

CC[C@@H](CO)NCCN[C@@H](CC)CO [ETHAMBUTOL]
Not Active: IC50 [1] | Ki [1] | IC50 [2] | IC50 [3] | Ki [3] | IC50 [4] | IC50 [5] | IC50 [6] | IC50 [7] | Ki [7] | IC50 [8] | IC50 [9]

CC1(C)O[C@@H]2C[C@H]3[C@@H]4C[C@H](F)C5=CC(=O)C=C[C@]5(C)[C@H]4[C@@H](O)C[C@]3(C)[C@]2(C(=O)CO)O1 [FLUNISOLIDE]
Not Active: IC50 [1] | Ki [1] | IC50 [2] | IC50 [3] | Ki [3] | IC50 [4] | IC50 [5] | IC50 [6] | IC50 [7] | Ki [7] | IC50 [8] | IC50 [9]

CC1(C)O[C@@H]2C[C@H]3[C@@H]4C[C@H](F)C5=CC(=O)C=C[C@]5(C)[C@@]4(F)[C@@H](O)C[C@]3(C)[C@]2(C(=O)CO)O1 [FLUOCINOLONE ACETONIDE]
Not Active: IC50 [1] | Ki [1] | IC50 [2] | IC50 [3] | Ki [3] | IC50 [4] | IC50 [5] | IC50 [6] | IC50 [7] | Ki [7] | IC50 [8] | IC50 [9]

CC1(C)O[C@@H]2C[C@H]3[C@@H]4C[C@H](F)C5=CC(=O)CC[C@]5(C)[C@H]4[C@@H](O)C[C@]3(C)[C@]2(C(=O)CO)O1 [FLURANDRENOLIDE]
Not Active: IC50 [1] | Ki [1] | IC50 [2] | IC50 [3] | Ki [3] | IC50 [4] | IC50 [5] | IC50 [6] | IC50 [7] | Ki [7] | IC50 [8] | IC50 [9]

CN(C)c1ccc(C(=C2C=CC(=[N+](C)C)C=C2)c2ccc(N(C)C)cc2)cc1.[Cl-] [GENTIAN VIOLET]
Not Active: IC50 [1] | Ki [1] | IC50 [2] | IC50 [3] | Ki [3] | IC50 [4] | IC50 [5] | IC50 [6] | IC50 [7] | Ki [7] | IC50 [8] | IC50 [9]

Cc1ccc(S(=O)(=O)NC(=O)NN2CC3CCCC3C2)cc1 (stereo unspecified) [GLICLAZIDE]
Not Active: IC50 [1] | Ki [1] | IC50 [2] | IC50 [3] | Ki [3] | IC50 [4] | IC50 [5] | IC50 [6] | IC50 [7] | Ki [7] | IC50 [8] | IC50 [9]

CC(C)Cc1ccc(C(C)C(=O)O)cc1 (stereo unspecified) [IBUPROFEN]
Not Active: IC50 [1] | Ki [1] | IC50 [2] | IC50 [3] | Ki [3] | IC50 [4] | IC50 [5] | IC50 [6] | IC50 [7] | Ki [7] | IC50 [8] | IC50 [9]

COc1ccc2c(c1)c(CC(=O)O)c(C)n2C(=O)c1ccc(Cl)cc1 [INDOMETHACIN]
Not Active: IC50 [1] | Ki [1] | IC50 [2] | IC50 [3] | Ki [3] | IC50 [4] | IC50 [5] | IC50 [6] | IC50 [7] | Ki [7] | IC50 [8] | IC50 [9]

CCc1c2c(nc3ccc(OC(=O)N4CCC(N5CCCCC5)CC4)cc13)-c1cc3c(c(=O)n1C2)COC(=O)[C@]3(O)CC [IRINOTECAN]
Not Active: IC50 [1] | Ki [1] | IC50 [2] | IC50 [3] | Ki [3] | IC50 [4] | IC50 [5] | IC50 [6] | IC50 [7] | Ki [7] | IC50 [8] | IC50 [9]

CC(C(=O)O)c1cccc(C(=O)c2ccccc2)c1 (stereo unspecified) [KETOPROFEN]
Not Active: IC50 [1] | Ki [1] | IC50 [2] | IC50 [3] | Ki [3] | IC50 [4] | IC50 [5] | IC50 [6] | IC50 [7] | Ki [7] | IC50 [8] | IC50 [9]

Nc1ccn([C@@H]2CS[C@H](CO)O2)c(=O)n1 [LAMIVUDINE]
Not Active: IC50 [1] | Ki [1] | IC50 [2] | IC50 [3] | Ki [3] | IC50 [4] | IC50 [5] | IC50 [6] | IC50 [7] | Ki [7] | IC50 [8] | IC50 [9]

O=S(=O)([O-])CCS.[Na+] [MESNA]
Not Active: IC50 [1] | Ki [1] | IC50 [2] | IC50 [3] | Ki [3] | IC50 [4] | IC50 [5] | IC50 [6] | IC50 [7] | Ki [7] | IC50 [8] | IC50 [9]

C#C[C@]1(O)CC[C@H]2[C@@H]3CCc4cc(OC)ccc4[C@H]3CC[C@@]21C [MESTRANOL]
Not Active: IC50 [1] | Ki [1] | IC50 [2] | IC50 [3] | Ki [3] | IC50 [4] | IC50 [5] | IC50 [6] | IC50 [7] | Ki [7] | IC50 [8] | IC50 [9]

CC(=O)Nc1cccc(O)c1 [METACETAMOL]
Not Active: IC50 [1] | Ki [1] | IC50 [2] | IC50 [3] | Ki [3] | IC50 [4] | IC50 [5] | IC50 [6] | IC50 [7] | Ki [7] | IC50 [8] | IC50 [9]

Cc1ncc([N+](=O)[O-])n1CCO [METRONIDAZOLE]
Not Active: IC50 [1] | Ki [1] | IC50 [2] | IC50 [3] | Ki [3] | IC50 [4] | IC50 [5] | IC50 [6] | IC50 [7] | Ki [7] | IC50 [8] | IC50 [9]

CC(C)(C(=O)c1cccnc1)c1cccnc1 [METYRAPONE]
Not Active: IC50 [1] | Ki [1] | IC50 [2] | IC50 [3] | Ki [3] | IC50 [4] | IC50 [5] | IC50 [6] | IC50 [7] | Ki [7] | IC50 [8] | IC50 [9]

Oc1ccc(OCc2ccccc2)cc1 [MONOBENZONE]
Not Active: IC50 [1] | Ki [1] | IC50 [2] | IC50 [3] | Ki [3] | IC50 [4] | IC50 [5] | IC50 [6] | IC50 [7] | Ki [7] | IC50 [8] | IC50 [9]

CC(C)(Oc1ccc(C2CCCc3ccccc32)cc1)C(=O)O (stereo unspecified) [NAFENOPIN]
Not Active: IC50 [1] | Ki [1] | IC50 [2] | IC50 [3] | Ki [3] | IC50 [4] | IC50 [5] | IC50 [6] | IC50 [7] | Ki [7] | IC50 [8] | IC50 [9]
